According to publication PMC5986712, “Aminobenzothiazole derivatives stabilize the thermolabile p53 cancer mutant Y220C and show anticancer activity in p53-Y220C cell lines” (European Journal of Medicinal Chemistry, 2018):
pIC50, pKd: −log10 of the molar value.

Columns and labels:
[1] = tested on: NUGC3 cells (p53-Y220C); experiment: Cell viability assay (CellTiter-Fluor / CellTiter-Glo 2.0), NUGC3; type: cell-based, human; conditions: for pIC50: Homo sapiens, NUGC-3, 72 h, Y220C cell line
Protocol: (§1) We also envisaged that masking the carboxylate of MB710 as a simple ethylamide MB725 might influence cell permeability and uptake of the scaffold.
(§2) All cell lines were cultured as previously described. Cell viability was measured in quadruplicate (technical replicates) using the CellTiter-Fluor or CellTiter-Glo 2.0 cell viability assay kits (Promega, USA) as previously described.

[2] = tested on: NUGC4 cells (wild-type p53); experiment: Cell viability assay, NUGC4; type: cell-based; conditions: Homo sapiens, NUGC-4; 72 h, p53 WT
Protocol: as §1, §2

[3] = molecular target: p53 cancer mutant Y220C; conditions: cited from earlier work
[4] = tested on: BXPC-3 cells (p53-Y220C); experiment: Cell viability assay, BXPC3; conditions: BXPC-3, 72 h; for pIC50: Homo sapiens, read-out: IC50 BXPC3
Protocol: (§5) All cell lines were cultured as previously described [9]. Cell viability was measured in quadruplicate (technical replicates) using the CellTiter-Fluor or CellTiter-Glo 2.0 cell viability assay kits (Promega, USA) as previously described [9].

[5] = tested on: WI38 cells (non-cancerous fibroblast, p53 WT); experiment: Cell viability assay, WI38; conditions: Homo sapiens, WI-38, 72 h, read-out: IC50 WI38
Protocol: as §5

[6] = molecular target: T1, 15N-labeled T-p53C-Y220C (Homo sapiens, UniProt P04637, M133L/N239Y/N268D/V203A/Y220C); experiment: 1H/15N-HSQC NMR titration; type: binding; conditions: average of at least three fits of shifted peaks
T1 construct: Stabilized p53-Y220C DBD (residues 94–312) was expressed and purified; 6xHis / lipoyl domain / TEV protease cleavage site (N, cleaved yes); made in house; host or cells: E. coli C41
Text: Compound stock solutions were mixed with protein immediately before the NMR measurement.

[7] = molecular target: T2, stabilized p53-Y220C DBD (residues 94–312) (Homo sapiens, UniProt P04637, M133L/N239Y/N268D/V203A/Y220C); experiment: Differential scanning fluorimetry (DSF), thermal stabilization of Y220C; type: binding; conditions: 8 μM protein, 10 × SYPRO Orange, 250 μM ligand
T2 construct: Stabilized p53-Y220C DBD (residues 94–312) was expressed and purified; 6xHis / lipoyl domain / TEV protease cleavage site (N, cleaved yes); made in house; host or cells: E. coli C41
Protocol: DSF was performed as described. […] All samples were measured in triplicate.

[8] = tested on: HUH-7 cells (p53-Y220C); experiment: Cell viability assay, HUH7; type: cell-based, human
Protocol: as §1, §2

[9] = tested on: HUH-7 and HUH-7 p53-Y220C KO cells; experiment: Cell viability, HUH-7 versus isogenic HUH-7 p53-Y220C KO; type: cell-based, human; conditions: 72 h
Text: (§3) To confirm that MB725 mediated anticancer effects are dependent on p53-Y220C, we additionally tested the compound in HUH-7 and an in-house CRISPR generated isogenic p53-Y220C knock-out (KO) HUH-7 cell line (Fig. 8). This new cell line contains a frameshift mutation at codon 124 on one allele and deletion of amino acids 125–223 on the other allele, leading to functional inactivation of the p53 DNA-binding domain (aa 92–292). MB725 decreased cell viability by ca. 30–40% more potently in HUH-7 than in the isogenic HUH-7 p53-Y220C KO (Fig. 8, upper panel).
Fig. 8 Assessment of p53-Y220C dependent effect of MB725. Treatment of HUH-7 (p53-Y220C) and HUH-7 p53-Y220C KO cell lines with MB725 for 72 h underscores the enhanced cytotoxicity of MB725 in the presence of p53-Y220C (left panel). […] Cell viability was measured in quadruplicate and normalized against the values of blank (viability = 1) and no cell (viability = 0) controls (left panel). […] Relative mRNA fold-change was measured in triplicate and normalized against untreated sample according to the ΔΔCt method. […]
(§4) WI-38 and BXPC-3 (p53-Y220C) cell lines were purchased from ATCC and HUH-7 (p53-Y220C+/+), HUH-6 (wild-type p53+/+). […] Cell viability was measured in quadruplicate (technical replicates) using the CellTiter-Fluor or CellTiter-Glo 2.0 cell viability assay kits (Promega, USA) as previously described. […]

[10] = Solubility (qualitative observation); type: physicochemical
[11] = Cell viability in other cell lines (lacking Y220C); type: cell-based; conditions: human, at concentrations below 40 μM
Text: We expected our compounds to show a strong cell viability reduction in cancer cell lines containing the Y220C mutation (NUGC3, HUH-7, BXPC-3), while showing relatively low or no effect on cell lines lacking this mutation (all others). We also envisaged that masking the carboxylate of MB710 as a simple ethylamide MB725 might influence cell permeability and uptake of the scaffold. […] In particular, NUGC3 was the most sensitive cell line.
Fig. 6 Effects of Y220C binders on cancer cell viability. Relative cell viability (Y-axis) of representative cell lines after 72 h treatment with increasing concentrations (X-axis, μM) of 60 (A), MB710 (B), MB725 (C), and previously reported lead compounds PK083 (D), PK7088 (E) and PK5196 (F). The cell line employed in each experiment and their respective p53 status are shown. […] Cell viability was measured in quadruplicate and normalized against the values of blank (viability = 1) and no cell (viability = 0) controls. Data are shown as mean ± SEM.
as §4

[12] = tested on: SW1088 cells (p53-R273C); experiment: Cell viability assay, SW1088; conditions: Homo sapiens, SW1088, 72 h, read-out: IC50 SW1088
Protocol: as §5

[13] = tested on: p53 target genes in HUH-7 and HUH-7 p53-Y220C KO cells; experiment: Real-time PCR of p53 target genes, HUH-7 versus HUH-7 p53-Y220C KO; type: cell-based, human; conditions: 18 h
Text: as §3
Fig. 8 Assessment of p53-Y220C dependent effect of MB725. Treatment of HUH-7 (p53-Y220C) and HUH-7 p53-Y220C KO cell lines with MB725 for 72 h underscores the enhanced cytotoxicity of MB725 in the presence of p53-Y220C (left panel). […] Cell viability was measured in quadruplicate and normalized against the values of blank (viability = 1) and no cell (viability = 0) controls (left panel). Data are shown as mean ± SEM (Unpaired t-test to test for significance in HUH7 and HUH7 p53 KO viability reduction; *p < 0.05; **p < 0.01; ***p < 0.001). Relative mRNA fold-change was measured in triplicate and normalized against untreated sample according to the ΔΔCt method. […]
Real-time PCR experiments were performed as described. […] The ΔΔCt method was used to quantify relative mRNA levels. Each sample was measured in triplicate.

pIC50 [4] | pIC50 ([8]; Homo sapiens, Huh-7, 72 h, Y220C cell line) | solubility (in words) [10] | pIC50 [12] | Structure (SMILES) | pIC50 [1] | pIC50 [2] | pKd [3] | pIC50 [5] | pKd [6] | ΔTm at 250 µM [7] [°C] | concentration at which an almost maximum effect was achieved ([1]; NUGC3, 72 h) | cell viability ([1]; NUGC3, 72 h, at concentrations below 40 μM) [%] | cell viability ([8]; HUH-7, 72 h, at concentrations below 40 μM) [%] | cell viability decreased more potently in HUH-7 than in isogenic HUH-7 p53-Y220C KO [9] | viability at 72 h [11] [%] | cell viability ([4]; at concentrations below 40 μM) [%] | increase of mRNA levels of p53 target genes (PUMA (BBC3), p21, MDM2, NOXA, BAX) [13]
4.37 |  |  |  | CCn1c2ccccc2c2cc(CNC)ccc21 [Compound 1] | 4.85 | 5.05 | 3.85 | 4.66 |  |  |  |  |  |  |  |  | 
 |  |  |  | CCCCOc1cc(C(=O)O)c(O)c(I)c1-n1cccc1 [Compound 52, 5-butoxy-2-hydroxy-3-iodo-4-(1H-pyrrol-1-yl)benzoic acid] |  |  |  |  | 4.52 | 1.4 |  |  |  |  |  |  | 
4.74 | 5.00 | reduced solubility | < 3.92 | CCNC(=O)c1c(O)c(I)c(-n2cccc2)c2sc(N(CC)CC)nc12 [Compound 72, 2-(diethylamino)-N-ethyl-5-hydroxy-6-iodo-7-(1H-pyrrol-1-yl)benzo[d]thiazole-4-carboxamide] | 5.00 | < 3.92 |  | < 3.92 |  |  | below 10 μM | 10 | 30 | 30–40% | > 80 | 30 | more efficiently in HUH-7 than in HUH-7 p53-Y220C KO
